# Reference: patent US8017346B2, “Method of quantifying the G protein-coupled receptor (GPCR)/G protein coupling using a cell membrane array” (Universidad Del Pais Vasco, priority 2005, dated 2011)
# Peptide text beside a SMILES is read from it.
# System: galanin receptors
# Test: [35S]GTPγS autoradiography on tissue membrane arrays with galanin receptor ligands
# Type: biochemical, rat
# Details: for effect on the action of galnon on [35S]GTPγS fixing: combination with galnon, tissue arrays (FIG. 5); for [35S]GTPγS fixing in the presence of ligand versus baseline: pituitary gland membranes, tissue array (FIG. 4)
# Text: 5 male Sprague Dawley rats (250-275 g) were anesthetized and sacrificed according to the guide approved by the Ethics Committee of the Faculty of Medicine of the University of the Basque Country, following the internationally accepted guidelines (86/609/EEC). The organs and tissue which were to be used in the experiment (pancreas, stomach, small intestine, spleen, heart, lung, liver, testicle, vas deferens, kidney, suprarenal glands, bone marrow and brain: frontal cortex, striatum, brain stem, pituitary gland, olfactory nuclei, hippocampus, hypothalamus, thalamus, colliculus and cerebellum) were then removed. These samples were stored at −70° C. until the experiment was carried out.
# The tissue samples (1 g) were homogenized using a teflon-glass homogenizer (10 strokes at 1,500 rpm) in 30 volumes of homogenization buffer [1 mM ethylene glycol-bis(β-aminoethyl)-N,N,N′,N′-tetraacetic acid (EGTA), 3 mM MgCl2, 1 mM dithiothreitol (DTT) and 50 mM Tris-HCl, pH 7.4] supplemented with […] sucrose. The crude homogenate was centrifuged at 3,000×g and at 4° C. for 5 minutes and the resulting supernatant was again centrifuged at 40,000×g for 10 minutes (4° C.). The pellet was washed in 20 volumes of homogenization buffer and re-centrifuged in the same conditions. Aliquots were carried out and stored at −70° C. The protein content was determined according to the Bradford method [Bradford M M., Anal Biochem 1976; 72:248-54] using bovine serum albumin (BSA) as a standard.
# 1 mg/ml aliquots of each tissue were taken and with this suspension, 1 μl microspots were made on glass supports (slides) which were previously treated with concentrated orthophosphoric acid (85%); to that end, the slides were first washed with acetone and then with anhydrous isopropanol, they were dried and finally submersed in concentrated orthophosphoric acid (85%) for 24 hours, they were washed with distilled water (Millipore) and air-dried. The arrays were frozen at −70° C. until the experiment was carried out.
# The slides with tissue sections were allowed to dry for 15 minutes at room temperature. The tissue section were then pre-incubated in assay buffer at pH 7.4 [50 mM Tris-HCl, 3 mM MgCl2, 0.2 mM EGTA, 100 mM NaCl, 3 mU/ml adenosine deaminase] for 20 minutes at room temperature to eliminate, as much as possible, the presence of endogenous neurotransmitters; afterwards, the sections were pre-incubated again in the assay buffer supplemented with guanosine diphosphate (GDP) (2 mM) and DTT (1 mM).
# The slides were then incubated for 2 hours at 30° C. in the previous assay buffer, to which the following substances were added according to the different conditions of the experiment:
# Baseline: 0.04 nM [^35S] GTPγS
# Activated: 0.04 nM [^35S] GTPγS+agonist
# Inhibited: 0.04 nM [^35S]GTPγS+agonist+antagonist
# Non-specific: 0.04 nM [^35S] GTPγS+10 μM GTPγS
# Once this time had elapsed, 2 washings of 15 minutes in the buffer 50 mM Tris-HCl, pH 7.4 at 4° C. were carried out. After the second washing, the sections were submersed in distilled water at 4° C. to eliminate the salts and the slide was dried by means of applying a cold air current.
# The slides with the corresponding sections were then exposed to a radiosensitive film (Kodak Biomax MR) which was developed in a manner similar to a photographic film. The labeling was quantified according to the different gray densities at nCi/g of tissue equivalent. To that end, each film was exposed together with the previously calibrated commercial standards (Amersham). The quantification was carried out with microscopic anatomical resolution in a computerized image analysis system, using NIH-image software, of G protein activation.
# The following ligands were used to study [^35S] GTPγS fixing in the absence (baseline) and in the presence of galanin receptor ligands: galanin, galnon, gal (2-11), M15 [galanin-(1-13)-substance P-5-11 amide], M35 [galanin-(1-13)-bradykinin-(2,9) amide] and M40 [galanin-(1-13)-[…]amide].
Compound,effect on the action of galnon on [35S]GTPγS fixing,[35S]GTPγS fixing in the presence of ligand versus baseline
Cc1cc(=O)oc2cc(NC(=O)[C@H](CCCCN)NC(=O)[C@H](CC3CCCCC3)NC(=O)OCC3c4ccccc4-c4ccccc43)ccc12 [galnon] (HELM PEPTIDE1{[O=C(OCC1c2ccccc2-c2ccccc21)[*:2]].[Cha].K.[Cc1cc(=O)oc2cc(N[*:1])ccc12]}$$$$V2.0),–,increase
gal (2-11): galanin receptor ligand,–,increase

# The next lines start with the values.
effect on the action of galnon on [35S]GTPγS fixing,[35S]GTPγS fixing in the presence of ligand versus baseline,Compound
antagonized,increase,"galanin-(1-13)-bradykinin-(2,9) amide [M35]"
–,increase,galanin-(1-13)-substance P-5-11 amide [M15]
antagonized,increase,galanin-(1-13)-Pro-Pro-Ala-Leu-Ala-Leu-Ala-Leu-Ala amide [M40]
